# Reference: patent US20100080855A1, “HEDGEHOG SIGNALING AND CANCER STEM CELLS IN HEMATOPOIETIC CELL MALIGNANCIES” (THE BOARD OF TRUSTEES OF THE LELAND STANFORD JUNIOR …, priority 2008, published 2010)
# System: BCR-ABL1 driven leukemia
# Settings: leukemias of mice treated with 25 mg/kg cyclopamine vs vehicle; flow cytometry lin-GFP+ c-Kit+Sca-1+
smiles,measurement,value
CC1=C2C[C@H]3[C@@H](CC=C4C[C@@H](O)CC[C@@]43C)[C@@H]2CC[C@]12O[C@@H]1C[C@H](C)CN[C@H]1[C@H]2C [cyclopamine],reduction in the CML stem cell population,up to a fourteen-fold reduction
